Assay results taken from patent US10414798B2, “Cancer stem cell targeting peptide and use thereof” (AGRICULTURAL TECHNOLOGY RESEARCH INSTITUTE, priority 2015, dated 2019).
Entries after “also recorded” stand apart in the source; their conditions may differ.

Columns and labels:
[1] = Glycan microarray analysis; format: binding; settings: biotin-CSC HP, Cy3-streptavidin
Experimental: (§1) N-terminus biotin conjugated CSC HPs with the sequences listed in Table A below were synthesized by GeneDirex with purities higher than 95%. Biotin-CSC HPs were dissolved in DMSO to prepare 10 mg/mL stocks.
Glycan Array 100 microchips (Cat. # GA-Glycan-100) were purchased from RayBiotech and were processed following the manufacturer's instruction with some modifications. Briefly, after blocking with 400 μL Sample Diluent (Item E) at room temperature for 30 minutes, the biotin conjugated CSC HPs were diluted to 1 μg/400 μL with Sample Diluent, and hybridization reactions were carried out at room temperature for 2 hours. After washing, 400 μL of 1×Cy3-conjugated streptavidin was added to each well. The incubation chamber was covered with the plastic adhesive strips and the slide was covered with aluminum foil to avoid exposure to light during incubating in a dark room. The slide was incubated with Cy3-conjugated streptavidin at room temperature for 1 hour with gentle rocking or shaking. After thorough washing, the slide was drained completely, and the fluorescent signals on it were read by laser scanner Axon GenePix. The relative intensity on glycan X was defined as (average of X−negative control)/(positive control−negative control)×100%.
The CSC HPs developed could distinguish CSCs from CCs, and this phenomenon was found cross-species between human and mouse. It was very interesting to figure out the targets of these CSC HPs. There were no detectable fluorescent signals of FITC-CSC HPs remaining on the nitrocellulose membrane that had been blotted with CSC membrane proteins separated by SDS PAGE (data not shown). Glycan microarray (Glycan Array 100 microchips), on which 100 kinds of oligosaccharides were spotted 4 times, was utilized to analyze the possibilities of the interactions between oligosaccharides and CSC HPs. Biotin-CSC HPs as listed in Table 2 were hybridized with glycans on chips. The biotin-CSC HPs trapped on the chips were explored with Cy3-conjugated streptavidin, and the fluorescent signals on it were read by a laser scanner. Two major patterns were illustrated in FIGS. 3A-3F. The first one included glycan 16 (Gal-β-1,4-Glc-β-), 18 (Gal-α-1,4-Gal-β-1,4-Glc-β-), and 26 (GalNAc-β-1,3-Gal-α-1,4-Gal-β-1,4-Glc-β-) Globo series (FIG. 3A). Typical cases were CSC HP-1 and CHC HP-hP1 (FIG. 3C). […] The typical cases were CSC HP5, CSC HP6, CSC HP7, and CSC HP9 (FIG. 3C). Two malignancy and metastasis glycan markers, glycan 63 (Fuc-α-1,2-Gal-β-1,4-(Fuc-α-1,3)-GlcNAc-β-, also called Lewis Y epitope) and glycan 69 (Neu5Ac-α-2,6-Gal-β-1,3-(Neu5Ac-α-2,6)-GalNAc-β-), were also detected. […] Both of the two Neu5Ac-α-2,6-residues were necessary for CSC HPs binding (FIG. 3E).

[2] = system: cancer cells (CCs); assay: Parallel CC experiments with labeled CSC HPs; format: binding, mouse; settings: N-terminal rhodamine B or fluorescein conjugate, fluorescence
Experimental: (§2) 20 μg/mL of Rhodamine B labeled CSC HP1 (Rd-CSC HP-1) and CSC HP2 (Rd-CSC HP-2) as well as FITC labeled CSC HP11 (FITC-CSC HP-11) were directly used to stain EMT6 CSCs and CCs. Cells were counter-stained with DAPI.
(§3) According to the results above, CSC HP-1, CSC HP-2, CSC HP-3, CSC HP-8, CSC HP-9, CSC HP-10, and CSC HP-11 were selected and chemically synthesized with N-terminal conjugation with rhodamine B or fluorescein. […] It was of interest to determine whether these CSC HPs derived from mouse cancers could recognize human CSCs.

[3] = system: PANC-1 CSCs; assay: Staining of tumorospheres with rhodamine B or fluorescein labeled CSC HPs; format: binding, human; settings: N-terminal rhodamine B or fluorescein conjugate, fluorescence
Experimental: [The procedure below names another cell line; the source lists this cell line under the same test.] as §2, §3

[4] = system: CT26 CSCs; assay: Staining of CSCs with rhodamine B or fluorescein labeled CSC HPs; format: binding, mouse; settings: N-terminal rhodamine B or fluorescein conjugate, fluorescence
Experimental: [The procedure below names another cell line; the source lists this cell line under the same test.] as §2, §3

[5] = system: EMT6 CSCs; assay: as above; format: binding, mouse; settings: N-terminal rhodamine B or fluorescein conjugate, fluorescence
Experimental: as §2, §3

[6] = system: Hepa1-6 CSCs; assay: as above; format: binding, mouse; settings: N-terminal rhodamine B or fluorescein conjugate, fluorescence
Experimental: [The procedure below names another cell line; the source lists this cell line under the same test.] as §2, §3

[7] = system: mouse embryonic stem cell (mESC); assay: M13 phage display selection, secondary CSC/ESC HP-library (ESC bound fraction); format: binding
Experimental: (§4) The M13 PhD-7 library (NEB, E8100) which contains 10^9 independent clones was purchased from New England Biolabs Inc. 10^13 plaque firming units (pfus) of M13 PhD-7 phages in 10 mL DMEM were pre-adsorbed by cancer cells in a T75 flask twice, each for 1 hour. Subsequently, the supernatant was transferred to a T25 flask containing 5×10^6 CSCs and incubated for 1 hour. The unbound and weakly associated phages were removed by centrifugation and suspension three times in DMEM/0/2% BSA. The cell pellet was suspended in 1 mL PBS containing 10^9 E. coli ER2738 and incubated in a shaker for 1 hour. Then 10 mL LB/5 mM MgCl2 was added. After being cultured over-night at 37° C., the cells were removed by centrifugation and phages in the supernatant were titrated. The aforementioned selection procedures were carried out for three rounds for EMT6 and PANC-1 to obtain the primary EMT6 CSC homing peptide (HP)- and PANC-1 CSC HP-library, respectively. Subsequently, M13 plaques were picked up to prepare the DNA for sequencing. […]
(§5) The primary CSC HP-library was selected directly once by either CT26 or Hepa1-6 CSCs to test the bias of CSC HP affinities to different kinds of cancers. […] Two new peptide sequences, KIYTTLD (CSC HP-9) (SEQ ID NO: 11) and NLQPPAY (CSC HP-12) (SEQ ID NO: 12), were read in the ESC unbound fraction (CSC HP-library) (Table 1).

[8] = Glycan microarray analysis, major signal pattern; format: binding; settings: biotin-CSC HP, Cy3-streptavidin
Experimental: as §1
Glycan Array 100 microchips (Cat. # GA-Glycan-100) were purchased from RayBiotech and were processed following the manufacturer's instruction with some modifications. Briefly, after blocking with 400 μL Sample Diluent (Item E) at room temperature for 30 minutes, the biotin conjugated CSC HPs were diluted to 1 μg/400 μL with Sample Diluent, and hybridization reactions were carried out at room temperature for 2 hours. After washing, 400 μL of 1×Cy3-conjugated streptavidin was added to each well. […] After thorough washing, the slide was drained completely, and the fluorescent signals on it were read by laser scanner Axon GenePix. […]
The CSC HPs developed could distinguish CSCs from CCs, and this phenomenon was found cross-species between human and mouse. […] The biotin-CSC HPs trapped on the chips were explored with Cy3-conjugated streptavidin, and the fluorescent signals on it were read by a laser scanner. […] Two malignancy and metastasis glycan markers, glycan 63 (Fuc-α-1,2-Gal-β-1,4-(Fuc-α-1,3)-GlcNAc-β-, also called Lewis Y epitope) and glycan 69 (Neu5Ac-α-2,6-Gal-β-1,3-(Neu5Ac-α-2,6)-GalNAc-β-), were also detected. […]

[9] = system: Hepa1-6 CSCs; assay: M13 phage display selection, secondary Hepa1-6 CSC HP-library; format: binding, mouse; settings: from Table 1
Experimental: as §4, §5

[10] = system: CT26 CSCs; assay: M13 phage display selection, secondary CT26 CSC HP-library; format: binding, mouse; settings: from Table 1
Experimental: as §4, §5

Substance	binding to glycan 19 [1]	detection in parallel CC experiments [2]	association with PANC-1 tumorospheres [3]	signal on glycan 69 [1]	association with CT26 CSCs [4]	association with EMT6 CSCs [5]	association with Hepa1-6 CSCs [6]	binding to glycan 26 [1]	other results
HGGVRLY (Cancer Stem Cell Targeting Peptide) [CSC HP-7, synthetic peptide that targets cancer stem cells]	bound strongly	–	–	–	–	–	–	–	–
YHMPALM (Cancer Stem Cell Targeting Peptide) [CSC HP-6, synthetic peptide that targets cancer stem cells]	bound strongly	–	–	–	–	–	–	–	–
KIYTTLD (Cancer Stem Cell Targeting Peptide) [CSC HP-9, synthetic peptide that targets cancer stem cells]	bound strongly	not detectable	definitely associated	higher signals	specifically associated	specifically associated	specifically associated	–	–
SQPTWMF (Cancer Stem Cell Targeting Peptide) [CSC HP-1, synthetic peptide that targets cancer stem cells]	–	not detectable	definitely associated	–	specifically associated	specifically associated	specifically associated	bound strongly and specifically	enrichment in the ESC bound fraction [7]: further enriched; major pattern of glycan microarray signals [8]: Globo series; binding / signal on glycan 63 [1]: higher signals; also recorded: bound more strongly
GMMSSPP (Cancer Stem Cell Targeting Peptide) [CSC HP-2, synthetic peptide that targets cancer stem cells]	–	not detectable	definitely associated	–	specifically associated	specifically associated	specifically associated	–	–
FSGGGNH (Cancer Stem Cell Targeting Peptide) [CSC HP-3, synthetic peptide that targets cancer stem cells]	–	not detectable	definitely associated	–	specifically associated	specifically associated	specifically associated	weakly bound	bias of CSC HP affinity to Hepa1-6 CSCs [9]: more specific
GPSASRN (Cancer Stem Cell Targeting Peptide) [CSC HP-10, synthetic peptide that targets cancer stem cells]	–	not detectable	definitely associated	higher signals	specifically associated	specifically associated	specifically associated	–	–
ATYGNLW (Cancer Stem Cell Targeting Peptide) [CSC HP-5, synthetic peptide that targets cancer stem cells]	bound strongly	–	–	–	–	–	–	–	–
YHQVKPH (Cancer Stem Cell Targeting Peptide) [CSC HP-hP3, synthetic peptide that targets cancer stem cells]	–	–	–	higher signals	–	–	–	–	–
GLAPFNA (Cancer Stem Cell Targeting Peptide) [CSC HP-11, synthetic peptide that targets cancer stem cells]	–	not detectable	definitely associated	higher signals	specifically associated	specifically associated	specifically associated	–	–
GSPVMSW (Cancer Stem Cell Targeting Peptide) [CSC HP-hP2, synthetic peptide that targets cancer stem cells]	–	–	–	higher signals	–	–	–	–	–
ELTPLTL (Cancer Stem Cell Targeting Peptide) [CSC HP-8, synthetic peptide that targets cancer stem cells]	–	not detectable	definitely associated	–	specifically associated	specifically associated	specifically associated	weakly bound	bias of CSC HP affinity to CT26 CSCs [10]: more specific
GPKVTIW (Cancer Stem Cell Targeting Peptide) [CSC HP-hP1, synthetic peptide that targets cancer stem cells]	–	–	–	–	–	–	–	bound strongly and specifically	major pattern of glycan microarray signals [8]: Globo series; binding / signal on glycan 63 [1]: higher signals; also recorded: bound more strongly
